Source: US20070249635A1, “Fungicidal Mixtures Based on a Triazolopyrimidine Derivative and a Conazole” (BASF Aktiengesellschaft, priority 2003, published 2007)

System: Plasmopara viticola
Assay: activity against peronospora of grapevines caused by Plasmopara viticola (protective spray on potted vines, cultivar Riesling)
Format: in vivo
Details: individual active compound, untreated control 90% infection
Description: The active compounds, separately or jointly, were prepared as a stock solution comprising 0.25% by weight of active compound in acetone or DMSO. 1 % by weight of the emulsifier Uniperol® EL (wetting agent having emulsifying and dispersant action based on ethoxylated alkylphenols) was added to this solution, and the mixture was diluted with water to the desired concentration.
Use example—activity against peronospora of gravevines caused by Plasmopara viticola
Leaves of potted vines of the cultivar “Riesling” were sprayed to runoff point with an aqueous suspension having the concentration of active compound stated below. The next day, the undersides of the leaves were inoculated with an aqueous zoospore suspension of Plasmopara viticola. The grapevines were then initially placed in a water-vapor-saturated chamber at 24° C. for 48 hours and then in a greenhouse at 20-30° C. for 5 days. After this period of time, the plants were again placed in a humid chamber for 16 hours to promote sporangiophore eruption. The extent of the development of the disease on the undersides of the leaves was then determined visually.
The visually determined percentages of infected leaf areas were converted into efficacies as % of the untreated control:
The efficacy (E) is calculated as follows using Abbot's formula: E=(1−α/β)·100 • α corresponds to the fungicidal infection of the treated plants in % and • β corresponds to the fungicidal infection of the untreated (control) plants in %
An efficacy of 0 means that the infection level of the treated plants corresponds to that of the untreated control plants; an efficacy of 100 means that the treated plants were not infected.
The expected efficacies of combinations of active compounds were determined using Colby's formula (Colby, S.R. “Calculating synergistic and antagonistic responses of herbicide combinations”, Weeds, 15, 20-22, 1967) and compared with the observed efficacies. Colby's formula: E=x+y−x·y/100 • E expected efficacy, expressed in % of the untreated control, when using the mixture of the active compounds A and B at the concentrations a and b • x efficacy, expressed in % of the untreated control, when using the active compound A at the concentration a • y efficacy, expressed in % of the untreated control, when using the active compound B at the concentration b

CC1CCN(c2c(-c3c(F)cccc3Cl)c(Cl)nc3ncnn23)CC1 [A]
Efficacy in % of the untreated control (4 ppm in the spray liquor): 11%

C[C@H](Nc1c(-c2c(F)cc(F)cc2F)c(Cl)nc2ncnn12)C(F)(F)F [B]
Efficacy in % of the untreated control (4 ppm in the spray liquor): 11%

CC1CCN(c2c(-c3c(F)cc(F)cc3F)c(Cl)nc3ncnn23)CC1 [I, 5-chloro-7-(4-methylpiperidin-1-yl)-6-(2,4,6-trifluorophenyl)-[1,2,4]triazolo[1,5-a]pyrimidine]
Efficacy in % of the untreated control (4 ppm in the spray liquor): 56%

CC(C1CC1)C(O)(Cn1cncn1)c1ccc(Cl)cc1 (stereo not drawn) [II, 2-(4-chlorophenyl)-3-cyclopropyl-1-[1,2,4]triazol-1-ylbutan-2-ol]
Efficacy in % of the untreated control (1 ppm in the spray liquor): 0%
Efficacy in % of the untreated control (4 ppm in the spray liquor): 0%
Efficacy in % of the untreated control (16 ppm in the spray liquor): 0%
